Patent publication US20110098216A1 (REGEN THERAPEUTICS PLC, priority 2009, published 2011)

Columns and labels:
[1] = test system: polychromatic erythrocytes in bone marrow of male and female ICR mice; conditions: definitive study, male and female mice, 24 or 48 h after dose; CP 50 mg/kg; Kastenbaum-Bowman Tables
Protocol: (§1) The assay was performed in two phases. The first phase, pilot toxicity study, was designed to assess toxicity of the test article and set dose levels for the definitive study. The second phase, the definitive micronucleus study, was designed to evaluate the potential of the test article to increase the incidence of micronucleated polychromatic erythrocytes in bone marrow of male and female ICR mice.
(§2) Phosphate buffered saline (PBS) was used as the test article vehicle. The test article was a workable suspension in PBS at 100 mg/mL, the maximum concentration prepared and tested in this study. […] In both phases of the study, test or control articles were administered at a dose volume of 20 mL/kg body weight via a single oral gavage dose.
(§3) The definitive micronucleus study consisted of seven groups, each containing 5 male and female ICR mice. […] An additional group of 5 male and 5 female ICR mice were treated with 2000 mg/kg to be used as possible replacement animals for the high dose in the event of mortality. […] Bone marrow cells [polychromatic erythrocytes (2000 PCEs/animal)] collected 24 and 48 hours after treatment were examined microscopically for the presence of micronuclei.

[2] = test system: Chinese hamster ovary (CHO) cells; assay: Chromosome aberration assay in CHO cells; format: cell-based; conditions: preliminary toxicity assay, any dose level up to 5000 μg/mL, all three exposure groups
Protocol: A preliminary toxicity test was performed to establish the dose range for the chromosome aberration assay. The chromosome aberration assay was used to evaluate the clastogenic potential of the test article. The dosing solution concentrations were adjusted to compensate for the protein content (13.6%) of the test article using a correction factor of 7.35.
In order to evaluate the toxic effect of lactose alone on the test system, α-Lactose monohydrate was tested as reference article at the same percentage of lactose as in the highest test article dose formulation in the preliminary toxicity assay. McCoy's media (complete medium for the non-activated test system and serum-free medium for the S9-activated test system) were the solvents of choice based on the solubility of the test article and compatibility with the target cells. […] The reference article was soluble in McCoy's complete and serum-free media at the dose level tested in the preliminary toxicity assay.
In the preliminary toxicity assay, the maximum dose tested was 5000 μg/mL. […] The reference article was soluble in complete medium and serum-free medium at 31.76 mg/mL at the beginning and conclusion of the treatment period. […]

[3] = Solubility and precipitation in water / on plates (mutation assay); format: physicochemical; conditions: initial toxicity-mutation assay with lactose, up to 31765 μg per plate
Protocol: (§4) The dose levels tested were 1.5, 5.0, 15, 50, 150, 500, 1500 and 5000 μg per plate.
(§5) The dose levels tested were 50, 150, 500, 1500 and 5000 μg per plate.

[4] = test system: male and female ICR mice; conditions: mouse, in vivo
Protocol: as §1, §2, §3

[5] = test system: Salmonella typhimurium tester strains TA98, TA100, TA1535 and TA1537 and Escherichia coli tester strain WP2 uvrA; assay: Bacterial Reverse Mutation Assay (plate incorporation method); conditions: initial toxicity-mutation assay with lactose, maximum dose 31765 μg per plate
Protocol: as §4
Based on the findings of the initial toxicity-mutation assay, the maximum dose plated in the confirmatory mutagenicity assay was 5000 μg per plate.
as §5

| Compound | incidence of micronucleated polychromatic erythrocytes relative to vehicle control [1] | substantial toxicity (at least 50% cell growth inhibition relative to solvent control) [2] | precipitate [3] | mortality and clinical signs [4] | toxicity [5] |
| --- | --- | --- | --- | --- | --- |
| O=P1(N(CCCl)CCCl)NCCCO1 (centres unmarked) [CP, cyclophosphamide monohydrate] | significant increase | – | – | – | – |
| O.OC[C@H]1O[C@@H](O[C@H]2[C@H](O)[C@@H](O)[C@@H](O)O[C@@H]2CO)[C@H](O)[C@@H](O)[C@H]1O [α-Lactose monohydrate] | – | not observed | Neither precipitate | no clinical signs | Neither precipitate nor appreciable toxicity |
